# Where two headings read alike, the source gives them in different places.
# Assays:
# EPCs [1] = assay: EPC culture and enumeration (AcLDL uptake / UEA-1 dual positive cells); type: cell-based, human
# From the text: EPCs were isolated and cultured as previously described (17). Briefly, peripheral blood mononuclear cells (PBMCs) were isolated by ficoll gradient centrifugation from either healthy young volunteers or patients with angiographically verified CAD. Blood was collected by venipuncture and anticoagulated with EDTA. 5×10^6 PBMCs were then washed and resuspended in EGM-2 media (Clonetics) and plated on fibronectin coated plates. Media were supplemented with either LiCl (Sigma), GSKI VIII (Calbiochem; Cat. No. 361549; AR-A014418:N-(4-Methoxybenzyl)-N′-(5-nitro-1,3-thiazol-2-yl)urea), or vehicle (DMSO) at the indicated concentrations.
# GSK inhibitor VIII is a GSK-3β isoform specific inhibitor derived from a class of compounds shown to inhibit GSK-3 both in vitro (54) and in vivo (53). After 96 hours of culture, non-adherent cells were removed and the plates washed three times with buffered wash solution. Cells were then incubated for another 72 hours before being labeling, enumeration, or being used in various assays.
# For the task of enumeration EPCs were arbitrarily defined as cells dually positive for AcLDL uptake and ulex europeus agglutinin I (UEAI) binding. […] Plates of cells were again washed, and incubated for a DAPI nuclear counterstain before a coverslip was applied to the well and double positive cells were counted in 6 random high power fields (×200 magnification). […]
# EPCs [2] = assay: EPC apoptosis by propidium iodide flow cytometry; type: cell-based, human; conditions: 2×GSKI; EPCs of healthy controls and CAD patients
# EPCs [3] = assay: EPC fibronectin adhesion assay; type: cell-based, human
# Description: Day 7 EPCs were detached from their fibronectin coated plates by incubation with 0.5 mmol EDTA. Cells were pelleted, resuspended in EGM-2 and enumerated. Subsequently, 100,000 EPCs were plated in 24-well fibronectin coated plates and incubated for 30 minutes. After, the wells were washed three times with HBSS and the adherent cells labeled and six random high power fields enumerated. Blocking experiments were performed using a specific VLA-4 antibody (MAB169832, Chemicon) at a concentration of 10 ug/mL and allowing cells to incubate for 2 hours.
# EPCs [4] = assay: In vitro prediction of maximal tolerated dose of GSKI in EPC culture; type: cell-based, human; conditions: multiples of IC50 concentration in EGM-2; 1× to 100× tested
# Description: In accordance with another aspect of the present invention, local delivery of inhibitor at the site of arterial injury represents an alternative strategy for enhancing arterial repair and mitigating neointima formation. GSKI coated stents (GCSs) were manufactured for use in a rabbit carotid model of stent neointima formation as previously described (27). Prior to implanting these GCSs, in vitro experiments were performed in order to predict the maximal tolerated dose of GSKI we could deliver in vivo. EPCs were cultured in EGM-2 supplemented with 1×, 2×, 5×, 10×, 20×, 30×, 40×, 50×, and 100× concentrations of the GSKI. […] To manufacture the GCSs, bare metal stents were coated with muco-gel supplemented with DMSO (vehicle for GSKI) or muco-gel containing 20×GSKI as previously described (27). Once coated, stents were allowed to dry in a sterile environment and packaged aseptically prior to delivery. Stents were deployed in New Zealand white rabbit carotid arteries according to a previous protocol and the stent neointima was subjected to quantitative histomophometry 14 days post-stent deployment (22). […] Despite rapid re-endothelialization of GCSs, a neointima formed in both groups but was 50% smaller in area in GCSs vs. control stents. […]
# β-catenin = β-catenin nuclear levels by western blot of EPC nuclear extracts; type: cell-based, human; conditions: EPCs cultured in media supplemented with GSKI (2×) vs control media
# Description: β-catenin nuclear levels were assayed by western blot of nuclear extracts from both control and treated EPCs. Briefly, nuclei were separated by differential centrifugation and total nuclear protein was extracted. Protein was then run on an acrylamide gel and transferred onto a PVDF membrane overnight. After transfer, the membrane was blocked for one hour in 5% skim milk powder in 0.1% Tween-20 in Tris buffered saline. This was then incubated for 48 hours with primary antibody of a monoclonal anti-phospho-β-catenin (Cell Signaling Technologies) diluted 1:1000 in 5% skim milk powder in TBS-T. After incubation the membrane was then washed 3 times for 5 minutes each with TBS-T. The membrane was then incubated in secondary antibody of goat anti rabbit IgG (H+ L) conjugated with horseradish peroxidase (1:5000 in TBS-T) for 24 hours. The membrane was washed and quantitated using ECL Plus (Amersham Biosciences).
# VEGF = VEGF secretion by EPCs (ELISA); type: cell-based, human; conditions: 24 hours in VEGF free media
# EPCs [5] = assay: EPC cell survival assay; type: cell-based, human; conditions: both healthy controls and patients with CAD, n=6
# Description: Day seven EPCs were used for all experiments unless otherwise indicated. For the cell survival assay, six high power fields were enumerated on day 7 for each individual. Subsequently, cells were washed and the media changed every four days after which cells were again enumerated. Data are expressed as a percentage of initial cells present on day 7. For apoptosis studies cells from patients and healthy controls were cultured for 7 days. Cells were then lifted and recoated at a density of 2×10^6 mature EPCs per well. The cells were then allowed to incubate for an additional four days prior to being lifted with EDTA supplementation of the media and gentle agitation. Cells were pelleted and resuspended in HBSS. Prior to analysis by flow cytometry, 10 μL of propidium iodide was added to the cell suspension. EPCs were identified by uptake of acLDL-alexa488 (Invitrogen) and UEA-1 FITC labeling in separate experiments. Uptake of propidium iodide identified apoptotic cells. A total of ten thousand events was analyzed and the data expressed as a percentage of total EPCs being apoptotic. All experiments were conducted on a Beckman Coulter Cytomics FC 500 cytometer.
# α-integrin subunits 1-5 = assay: Quantitative PCR of α-integrin subunits in EPCs; type: cell-based, human
# GSK-3β = GSK-3β (Homo sapiens, UniProt P49841); conditions: cited from earlier work
# Chain of GSK-3β (P49841 whole entry, species assumed): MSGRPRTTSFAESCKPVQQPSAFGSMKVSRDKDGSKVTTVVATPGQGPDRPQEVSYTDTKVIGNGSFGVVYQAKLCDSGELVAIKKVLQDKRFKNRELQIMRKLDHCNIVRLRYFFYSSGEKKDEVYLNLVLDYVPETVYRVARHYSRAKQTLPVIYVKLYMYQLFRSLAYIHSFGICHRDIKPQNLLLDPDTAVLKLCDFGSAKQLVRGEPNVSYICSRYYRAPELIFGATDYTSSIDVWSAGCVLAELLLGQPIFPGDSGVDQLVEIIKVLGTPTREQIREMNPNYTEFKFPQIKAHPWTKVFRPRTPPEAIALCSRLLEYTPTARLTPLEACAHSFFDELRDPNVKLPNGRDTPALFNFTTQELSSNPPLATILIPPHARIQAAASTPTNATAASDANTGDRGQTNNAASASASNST
SMILES,EPC yield (EPCs [1]),percentage of apoptotic cells (EPCs [2]),"EPC adherence, healthy controls (EPCs [3]; EPCs from healthy controls, fibronectin, 30 minutes)","increase in EPC adherence, patients cells (EPCs [3]; EPCs from patients with CAD, fibronectin, 30 minutes) [fold]","number of adherent cells after 30 minutes (EPCs [3]; VLA4 blocking experiment, without antibody)",dose resulting in increased EPC death and attenuated function (EPCs [4]) [×],nuclear b-catenin levels (β-catenin),VEGF secretion by mature EPCs (VEGF),EPC survival (long term viability) (EPCs [5]),"mRNA levels of α-1, -2, -3 and -5 integrin subunits (α-integrin subunits 1-5; GSKI 1× and 2× vs control)","mRNA of α-4 integrin subunit (α-integrin subunits 1-5; both concentrations of the GSKI (1×, 2×))","EPC yield (EPCs [1]; 7 days culture, EPCs from both healthy controls and CAD patients, GSKI at 104 nm and 208 nm)",doses in which LiCl inhibits GSK-3β (GSK-3β) [mM]
"COc1ccc(CNC(=O)Nc2ncc([N+](=O)[O-])s2)cc1 [GSKI, N-(4-Methoxybenzyl)-N′-(5-nitro-1,3-thiazol-2-yl)urea]",increase,reduction,dose dependent increase,~4,increased,≥ 30,increased levels,increase,significantly improves long term viability,No difference,upregulation,–,–
"[Cl-].[Li+] [LiCl, lithium chloride]",–,–,–,–,–,–,–,–,–,–,–,increases,10 to 20

# Reference: patent publication US20090117090A1, “INHIBITION OF GLYCOGEN SYNTHASE KINASE 3 BETA IN ARTERIAL REPAIR AND STENT RE-ENDOTHELIALIZATION” (OTTAWA HEART INSTITUTE RESEARCH CORPORATION, priority 2007, published 2009)
